# Experimental data published in patent publication US9321756B2, “Azole compounds as PIM inhibitors” (priority 2011, dated 2016).
# pIC50: −log10 of the molar value. Where two headings read alike, the source gives them in different places.
# Experiments:
# [1] = test system: Pim-2 stably transfected U2OS human osteogenic sarcoma line; assay: Pim cell assay U2OS (phospho-BAD normalized against total BAD), Pim-2 transfected; assay type: cell-based; settings: read-out: U2OS Pim2_Cell_IC50
# Experimental: (§1) The cell lines used in the assay were generated by the stable transfection of either Pim-1 or Pim-2 into the U2OS human osteogenic sarcoma line. The assay for determination of the Pim activity in the engineered U2OS cell lines measures levels of phospho-BAD normalized against total BAD protein levels. It was conducted as follows:
# (§2) The adherent cells were dissociated from the flasks using non-enzymatic cell dissociation solution (Sigma #C5914). […] The cells were then incubated overnight at 37° C., 5% CO2.
# (§3) In addition to the 10-point dosing curve of the test compound, DMSO alone was run as the high control.
# (§4) This dilution in DMSO was then diluted again into cell growth medium. Aliquots (12 μL) of the compound diluted in growth medium were then transferred to the appropriate wells of the 96-well plates containing cells to a final DMSO concentration of 0.3%. The cell plates were then incubated with compound for 29 min at 37° C., 5% CO2.
# (§5) The cell plates containing lysis buffer were then immediately stored at −70° C.
# (§6) These prepared lysates were then assayed for phospho and total BAD according to the manufacturer's protocols (Meso Scale Diagnostics, Cat#K15103C-3 & #K15103D-3). The plates were read on the MSD Sector Imager 6000, and results were calculated according to the assay protocols ((% Phosphoprotein=((2×Phospho signal)/(Phospho signal+Total signal))×100)).
# [2] = biological target: full length recombinant Pim-2 (Homo sapiens (Human), UniProt Q9P1W9); assay: Pim enzyme assay (HTRF, phosphorylation of biotinylated-BAD (S112) peptide), Pim-2; assay type: biochemical; settings: read-out: Pim2_IC50
# [3] = biological target: full length recombinant Pim-1 (Homo sapiens (Human), UniProt P11309); assay: Pim enzyme assay (HTRF, phosphorylation of biotinylated-BAD (S112) peptide), Pim-1; assay type: biochemical
# [4] = test system: Pim-1 stably transfected U2OS human osteogenic sarcoma line; assay: Pim cell assay U2OS (phospho-BAD normalized against total BAD), Pim-1 transfected; assay type: cell-based
# Experimental: as §1, §2, §3, §4, §5, §6
# [5] = biological target: full length recombinant Pim-3 (Homo sapiens (Human), UniProt Q86V86); assay: Pim enzyme assay (HTRF, phosphorylation of biotinylated-BAD (S112) peptide), Pim-3; assay type: biochemical; settings: Pim-3 enzyme assay; read-out: Pim3 IC50
# In short: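 IC50 values were fitted with a 4-parameter logistic model to percent-of-control HTRF signal (Eu anti-phospho-BAD S112 antibody/streptavidin-APC). Reactions used full-length Pim-3 and biotin-BAD (S112) peptide, ran 1 h 30 min at RT (22 °C) in Hepes pH 7.0 buffer with BSA and DTT, and were stopped by 3 mM EDTA.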
# [6] = Homo sapiens, U2OS cells, Pim-2 transfected
# [7] = Pim-1 enzyme assay, read-out: Pim_1_IC50
# [8] = Homo sapiens, U2OS, read-out: U2OS Pim1_Cell_IC50, U2OS cells, Pim-1 transfected
# [9] = Homo sapiens, U2OS, read-out: U2OS Pim1_Cell_IC50
# full length recombinant Pim-2, sequence (Q9P1W9 whole entry): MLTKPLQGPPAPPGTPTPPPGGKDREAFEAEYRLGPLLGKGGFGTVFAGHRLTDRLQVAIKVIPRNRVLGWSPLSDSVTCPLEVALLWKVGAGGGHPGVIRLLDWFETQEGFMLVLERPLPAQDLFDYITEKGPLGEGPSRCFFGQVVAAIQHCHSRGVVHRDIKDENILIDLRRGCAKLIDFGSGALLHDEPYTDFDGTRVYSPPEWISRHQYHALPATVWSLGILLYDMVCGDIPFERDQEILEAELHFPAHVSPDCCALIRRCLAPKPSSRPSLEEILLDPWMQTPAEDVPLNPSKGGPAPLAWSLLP
# full length recombinant Pim-1, sequence (P11309 whole entry): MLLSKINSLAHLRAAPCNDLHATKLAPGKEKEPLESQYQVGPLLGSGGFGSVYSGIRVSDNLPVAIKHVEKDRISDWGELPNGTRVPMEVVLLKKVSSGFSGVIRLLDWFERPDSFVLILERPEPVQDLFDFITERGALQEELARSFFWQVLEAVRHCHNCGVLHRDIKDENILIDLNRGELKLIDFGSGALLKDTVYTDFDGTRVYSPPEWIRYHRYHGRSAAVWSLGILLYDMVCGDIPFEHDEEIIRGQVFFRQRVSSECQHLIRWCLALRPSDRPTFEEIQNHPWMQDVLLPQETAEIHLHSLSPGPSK
SMILES,"pIC50 [1, 6]",pIC50 ([2]; Pim-2 enzyme assay),"pIC50 [3, 7]","pIC50 [4, 8]","pIC50 [4, 9]",pIC50 [5],other results
"Nc1nnc(-c2ccc3[nH]cc(-c4cncc(-c5ccc(Cl)cc5)n4)c3c2)o1 [Example 114, 5-(3-(6-(4-chlorophenyl)-2-pyrazinyl)-1H-indol-5-yl)-1,3,4-oxadiazol-2-amine]",< 4.50,7.60,7.90,6.86,–,–,–
"C[C@H]1COCCN1c1nnc(-c2ccc3[nH]cc(-c4cncc(C5CC5)n4)c3c2)o1 [Example 248, 3-(6-cyclopropyl-2-pyrazinyl)-5-(5-((3S)-3-methyl-4-morpholinyl)-1,3,4-oxadiazol-2-yl)-1H-indole]",< 4.50,7.68,7.86,6.72,–,–,–
"c1cc2[nH]cc(-c3cncc(C4CC4)n3)c2cc1-c1nnc(NC2COC2)o1 [Example 251, 5-(3-(6-cyclopropyl-2-pyrazinyl)-1H-indol-5-yl)-N-3-oxetanyl-1,3,4-oxadiazol-2-amine]",5.70,8.23,8.49,–,6.97,–,–
"Nc1nnc(-c2ccc3[nH]cc(-c4cccc(N5CCCCC5)n4)c3c2)s1 [Example 172, 5-(3-(6-(1-piperidinyl)-2-pyridinyl)-1H-indol-5-yl)-1,3,4-thiadiazol-2-amine]",< 4.50,7.16,7.39,–,6.38,–,–
"Nc1nnc(-c2ccc3[nH]cc(-c4cccc(NC5CCCC5)n4)c3c2)s1 [Example 16, 5-(3-(6-(cyclopentylamino)pyridin-2-yl)-1H-indol-5-yl)-1,3,4-thiadiazol-2-amine 2,2,2-trifluoroacetate]",–,–,–,–,–,–,"pIC50 ([1]; Homo sapiens, U2OS): 5.51; pIC50 [2]: 7.68"
"Nc1nnc(-c2ccc3[nH]cc(-c4cncc(NC5CCCCC5)n4)c3c2)s1 [Example 208, 6-(5-(5-amino-1,3,4-thiadiazol-2-yl)-1H-indol-3-yl)-N-cyclohexyl-2-pyrazinamine]",5.58,7.74,8.50,7.25,–,–,–
"CNc1nnc(-c2ccc3[nH]cc(-c4cccc(OC(C)C)n4)c3c2)o1 [Example 41, 5-(3-(6-isopropoxypyridin-2-yl)-1H-indol-5-yl)-N-methyl-1,3,4-oxadiazol-2-amine]",5.88,–,8.19,6.91,–,–,pIC50 [2]: 7.71
"c1cc2[nH]cc(-c3cncc(C4CC4)n3)c2cc1-c1nnc(N2CCOCC2)o1 [Example 245, 3-(6-cyclopropyl-2-pyrazinyl)-5-(5-(4-morpholinyl)-1,3,4-oxadiazol-2-yl)-1H-indole]",< 4.50,–,7.69,6.66,–,–,–
"CC[C@@H]1COCCN1c1nnc(-c2ccc3[nH]cc(-c4cncc(C5CC5)n4)c3c2)o1 (stereo in doubt) [Example 252, 3-(6-cyclopropyl-2-pyrazinyl)-5-(5-(3-ethyl-4-morpholinyl)-1,3,4-oxadiazol-2-yl)-1H-indole]",< 4.50,7.53,8.02,–,6.51,–,–
"CC(C)Nc1cncc(-c2c[nH]c3ccc(-c4nc(N)ns4)cc23)n1 [Example 64, 5-(3-(6-(isopropylamino)pyrazin-2-yl)-1H-indol-5-yl)-1,2,4-thiadiazol-3-amine]",< 5.00,7.23,8.37,–,6.70,–,–
"c1cc2[nH]cc(-c3cncc(C4CC4)n3)c2cc1-c1nnc(C2CC2)o1 [Example 44, 2-Cyclopropyl-5-(3-(6-cyclopropylpyrazin-2-yl)-1H-indol-5-yl)-1,3,4-oxadiazole]",< 4.50,7.58,8.00,–,6.20,–,–
"CC(C)Nc1nnc(-c2ccc3[nH]cc(-c4nccc(C(F)(F)F)n4)c3c2)o1 [Example 258, N-(1-methylethyl)-5-(3-(4-(trifluoromethyl)-2-pyrimidinyl)-1H-indol-5-yl)-1,3,4-oxadiazol-2-amine]",5.43,7.60,7.86,–,6.64,–,–
"N[C@H]1CCN(c2nnc(-c3ccc4[nH]cc(-c5ccccc5F)c4c3)s2)C1 (stereo in doubt) [Example 140, 1-(5-(3-(2-fluorophenyl)-1H-indol-5-yl)-1,3,4-thiadiazol-2-yl)-3-pyrrolidinamine]",–,6.61,7.14,–,6.06,7.87,–
"CC1COCCN1c1nnc(-c2ccc3[nH]cc(-c4cncc(C5CC5)n4)c3c2)o1 (stereo in doubt) [Example 249, 3-(6-cyclopropyl-2-pyrazinyl)-5-(5-((3R)-3-methyl-4-morpholinyl)-1,3,4-oxadiazol-2-yl)-1H-indole]",–,7.31,7.79,–,–,–,"pIC50 ([1]; U2OS cells, Pim-2 transfected): < 4.50; pIC50 ([4]; read-out: U2OS Pim1_Cell_IC50, U2OS cells, Pim-1 transfected): 6.43"
"Nc1nnc(-c2ccc3[nH]cc(-c4nccc(OCC(F)(F)F)n4)c3c2)o1 [Example 110, 5-(3-(4-(2,2,2-trifluoroethoxy)-2-pyrimidinyl)-1H-indol-5-yl)-1,3,4-oxadiazol-2-amine]",5.79,8.62,8.33,–,6.66,–,–
"Nc1ncc(-c2ccc3[nH]cc(-c4cccc(N5CCOCC5)n4)c3c2)s1 [Example 213, 5-(3-(6-(4-morpholinyl)-2-pyridinyl)-1H-indol-5-yl)-1,3-thiazol-2-amine]",–,6.14,–,–,5.82,7.35,pIC50 [3]: 7.02
"CN1CCN(c2cnc(-c3c[nH]c4ccc(-c5nnc(N)s5)cc34)cn2)CC1 [Example 178, 5-(3-(5-(4-methyl-1-piperazinyl)-2-pyrazinyl)-1H-indol-5-yl)-1,3,4-thiadiazol-2-amine]",–,6.34,7.21,5.65,–,7.27,–
"NCCCNc1nnc(-c2ccc3[nH]cc(-c4ccccc4F)c3c2)s1 [Example 12, N-(5-(3-(2-fluorophenyl)-1H-indol-5-yl)-1,3,4-thiadiazol-2-yl)propane-1,3-diamine]",–,6.81,7.29,–,5.50,7.86,–
"Fc1ccccc1-c1c[nH]c2ccc(-c3nnc(N[C@H]4CCCNC4)s3)cc12 (stereo in doubt) [Example 139, N-(5-(3-(2-fluorophenyl)-1H-indol-5-yl)-1,3,4-thiadiazol-2-yl)-3-piperidinamine]",–,6.98,7.53,6.24,–,7.74,–
"Fc1ccccc1-c1c[nH]c2ccc(-c3nnc(NCC[C@H]4CCCCN4)s3)cc12 (stereo in doubt) [Example 141, 5-(3-(2-fluorophenyl)-1H-indol-5-yl)-N-(2-(2-piperidinyl)ethyl)-1,3,4-thiadiazol-2-amine]",–,6.32,7.13,–,5.95,7.30,–
"CC(C)Nc1cncc(-c2c[nH]c3ccc(-c4nnc(N)s4)cc23)n1 [Example 206, 6-(5-(5-amino-1,3,4-thiadiazol-2-yl)-1H-indol-3-yl)-N-(1-methylethyl)-2-pyrazinamine]",6.02,8.02,–,–,–,8.94,–
"Fc1ccccc1-c1c[nH]c2ccc(-c3nnc(NCc4cccc5[nH]ccc45)s3)cc12 [Example 143, 5-(3-(2-fluorophenyl)-1H-indol-5-yl)-N-(1H-indol-4-ylmethyl)-1,3,4-thiadiazol-2-amine]",–,5.52,6.84,–,5.28,7.07,–
